In assay [1] the test system is quorum-sensing in Staphylococcus aureus. As to conditions: ref 5 (Igarashi et al.); read-out: quorum-sensing inhibition in Staphylococcus aureus, IC50; cited from earlier work. The text has this: (§1) Turnagainolides are a distinctive family of cyclic depsipeptides containing one (E)-3-hydroxy-5-phenylpent-4-enoic acid (Hppa) and four proteinogenic amino acids (Fig. S1). As the first member of this family, compound EGM-556 was discovered from the marine fungus Microascus sp. EGM-556 following the introduction of the histone deacetylase inhibitor suberoylanilide hydroxamic acid to activate a silent biosynthetic gene cluster. However, its stereochemistry was only partially resolved, and no bioactivity was reported ([3]). Subsequently, turnagainolides A and B were identified from Bacillus sp., ...

The subject of assay [2] is SHIP1 enzyme. To be noted: in vitro; cited from earlier work. The text has this:
Turnagainolides are a distinctive family of cyclic depsipeptides containing one (E)-3-hydroxy-5-phenylpent-4-enoic acid (Hppa) and four proteinogenic amino acids (Fig. S1). As the first member of this family, compound EGM-556 was discovered from the marine fungus Microascus sp. EGM-556 following the introduction of the histone deacetylase inhibitor suberoylanilide hydroxamic acid to activate a silent biosynthetic gene cluster. However, its stereochemistry was only partially resolved, and no bioactivity was reported ([3]).

The test system of assay [3] is S. aureus biofilm. Briefly: biofilm inhibition experiment (crystal violet). Format: cell-based. As to conditions: overnight 37°C, TSB, OD570. As for the experimental part: S. aureus was cultured overnight in 3 mL of TSB medium. The next morning, the culture was diluted to an OD570 of 0.5 with fresh TSB medium and then further diluted 1,000-fold to achieve a final concentration of 1 × 10^6 CFU/mL. Aliquots of 100 µL of the diluted culture were transferred to individual wells of a 96-well plate. Test compounds were added to the first well of each row at a concentration of 800 µg/mL, followed by twofold serial dilutions across the row. The plate was incubated overnight at 37°C. The medium was subsequently discarded, and the wells were washed three times with PBS (KH2PO4 0.27 g, Na2HPO4 1.42 g, NaCl 8 g, KCl 0.2 g in 1 L deionized water, pH 7.4). Next, 200 µL of methanol was added to each well to fix the biofilm, and the plate was incubated for 15 minutes. The methanol was then removed, and the wells were stained with 0.1% crystal violet for 5 minutes. Excess dye was washed off, and the plate was air-dried. To dissolve the bound stain, 200 µL of glacial acetic acid was added to each well, and the plate was shaken for 20 minutes. The absorbance at OD570 was measured using a microplate reader (Thermo Fisher Scientific, Varioskan LUX).

The subject of assay [4] is Candida albicans. As to conditions: cited from earlier work.
Description: as §1

For assay [5], the system named is Escherichia coli. To be noted: cited from earlier work.
Description: as §1

Assay [6] concerns S. aureus. As to conditions: cited from earlier work.
Description: as §1

Assay [7] concerns bacteria. On the set-up: method as in doi:10.1016/j.cclet.2016.03.018. To be noted: compared among congeners; cited from earlier work.

Entries after “also recorded” stand apart in the source; their conditions may differ.

Take Turnagainolide A [Compound 1]: the IC50 – broadly, the concentration at which inhibition is half-maximal – in assay [1] is 800 nM. Also, in assay [2], the “activation of SHIP1 enzyme” value is “only turnagainolide B activates SHIP1”. Moreover, the “anti-biofilm activity at 200 µg/mL” value in assay [3] (200 µg/mL) is on record as “no activity”. Further, the “anti-biofilm activity at 400 µg/mL” value in assay [3] (400 µg/mL) was “weak inhibitory activity”.

Regarding Turnagainolide B [Compound 2], the “activation of SHIP1 enzyme” value in assay [2] is reported as “activates SHIP1; also recorded: activator of the SHIP1 enzyme”. Further, in assay [3], the “anti-biofilm activity at concentrations above 100 µg/mL” value is listed as “slightly stronger inhibition; also recorded: weak inhibition”.

Consider Turnagainolide D [Compound 3], for which the “anti-biofilm activity at concentrations above 100 µg/mL” value in assay [3] is recorded as “slightly stronger inhibition; also recorded: weak inhibition”.

In the case of arthroamide [reference compound], the 50% inhibitory concentration (IC50) in assay [1] was 300 nM.

As for turnagainolide C, in assay [4], the “anti-microbial activity against Candida albicans” value is “anti-microbial activity”. In assay [5], the “anti-microbial activity against Escherichia coli” value is “anti-microbial activity”. Further, the “anti-microbial activity against S. aureus” value in assay [6] was “anti-microbial activity”. The antibacterial activity entry in assay [7] was “only congener that exhibits antibacterial activity”.

The values above are taken from publication PMC12094020, “Elucidation of novel turnagainolides and their biosynthetic gene cluster in Bacillus subtilis” (Applied and Environmental Microbiology, 2025).
